Source: patent US8653102B2, “Substituted 2-oxo- and 2-thioxo-dihydroquinoline-3-carboxamides as KCNQ2/3 modulators” (Gruenenthal GmbH, priority 2010, dated 2014)
Like-named read-outs stand apart in the source and are kept apart here. Each block holds one molecule with its values, some of them ahead of it.

Biological target: T1, KCNQ2/3 channels (Homo sapiens, UniProt O43525+O43526)
T1 construct: expressed in transfected cells; host or cells: CHO-K1 cells kept under selection antibiotics
Assay: Fluorescence assay using a voltage sensitive dye (fluorimetry)
Type: cell-based
Description: Pharmacological Experiments Method I. Fluorescence Assay Using a Voltage Sensitive Dye (Fluorimetry)
[…] CHO-K1 cells expressing KCNQ2/3 channels are cultivated adherently at 37° C., 5% CO2 and 95% humidity in cell culture bottles (e.g. 80 cm^2 TC flasks, Nunc) with DMEM-high glucose (Sigma Aldrich, D7777) including 10% FCS (PAN Biotech, e.g. 3302-P270521) or alternatively MEM Alpha Medium (1×, liquid, Invitrogen, #22571), 10% fetal calf serum (FCS) (Invitrogen, #10270-106, heat-inactivated) and the necessary selection antibiotics.
Before being sown out for the measurements, the cells are washed with 1×DPBS buffer Ca^2+/Mg^2+-free (e.g. Invitrogen, #14190-094) and detached from the bottom of the culture vessel by using Accutase (PAA Laboratories, #L11-007) (incubation with Accutase for 15 min at 37° C.). The cell number is determined using a CASY™ cell counter (TCC, Schärfe System). Depending on the optimal density for each individual cell line, 20,000-30,000 cells/well/100 μl are seeded onto 96-well Corning™ CellBIND™ assay plates (Flat Clear Bottom Black Polystyrene Microplates, #3340). Freshly seeded cells are then left to settle for one hour at room temperature, followed by incubation for 24 hours at 37° C., 5% CO2 and 95% humidity.
The voltage-sensitive fluorescent dye from the Membrane Potential Assay Kit (Red™ Bulk format part R8123 for FLIPR, MDS Analytical Technologies™) is prepared by dissolving the contents of one vessel Membrane Potential Assay Kit Red Component A in 200 ml of extracellular buffer (ES buffer, 120 mM NaCl, 1 mM KCl, 10 mM HEPES, 2 mM CaCl2, 2 mM MgCl2, 10 mM glucose; pH 7.4). After removal of the nutrient medium, the cells are washed once with 200 μl of ES buffer, then loaded for 45 min at room temperature in 100 μl of dye solution in the dark.
Fluorescence measurements are carried out in a BMG Labtech FLUOstar™, BMG Labtech NOVOstar™ or BMG Labtech POLARstar™ instrument (525 nm excitation, 560 nm emission, Bottom Read mode). After incubation with the dye, 50 μl of the test substances in the desired concentrations, or 50 μl of ES buffer for control purposes, are applied to the wells of the assay plate and incubated for 30 min at room temperature while being shielded from light. The fluorescence intensity of the dye is then measured for 5 min and the fluorescence value F1 of each well is thus determined at a given, constant time. 15 μl of a KCl solution are then added to each well (final concentration of potassium ions 92 mM). The change in fluorescence intensity is subsequently monitored until all the relevant values have been obtained (mainly 5-30 min). At a given time post KCl application, a fluorescence value F2 is determined, in this case at the time of the fluorescence peak.
For calculation, the fluorescence intensity F2 is corrected for the fluorescence intensity F1, and the activity (ΔF/F) of the target compound on the potassium channel is determined as follows:
In order to determine whether a substance has agonistic activity,
A substance has an agonistic activity on the potassium channel if
[formula] increases dose dependently.
Calculations of EC50 and IC50 values are carried out with the aid of ‘Prism v4.0’ software (GraphPad Software™).

[1] = CHO-K1 cells expressing KCNQ2/3 channels
[2] = CHO-K1 cells expressing KCNQ2/3 channels, relative to retigabine (RTG) = 100%, read-out: Fluorimetry % efficacy (RTG = 100%)

- EC50 [1]: 3140 nM
- Emax [2]: 105%
Molecule: Cc1c(C(=O)NCc2cccc(F)c2)c(=O)n(C)c2cc(F)ccc12 [Example 34, 7-fluoro-N-[(3-fluorophenyl)-methyl]-1,4-dimethyl-2-oxo-1H-quinoline-3-carboxylic acid amide]

- Emax [2]: 43%
Molecule: CCOCCn1c(=O)c(C(=O)NCc2cccc(F)c2)c(C)c2ccc(C(F)(F)F)cc21 [Example 39, 1-(2-ethoxy-ethyl)-N-[(3-fluorophenyl)-methyl]-4-methyl-2-oxo-7-(trifluoromethyl)-1H-quinoline-3-carboxylic acid amide]

- EC50 [1]: 193 nM
- Emax [2]: 133%
Molecule: CCC(COC)n1c(=O)c(C(=O)NCc2cccc(F)c2)c(C)c2ccc(C(F)(F)F)cc21 (stereo not shown) [Example 30, N-[(3-fluorophenyl)-methyl]-1-[1-(methoxymethyl)-propyl]-4-methyl-2-oxo-7-(trifluoromethyl)-1H-quinoline-3-carboxylic acid amide]

- EC50 [1]: 729 nM
- Emax [2]: 139%
Molecule: Cc1c(C(=O)NCc2cccc(F)c2)c(=O)n(C)c2cc(Cl)ccc12 [Example 37, 7-chloro-N-[(3-fluorophenyl)-methyl]-1,4-dimethyl-2-oxo-1H-quinoline-3-carboxylic acid amide]

- EC50 [1]: 837 nM
- Emax [2]: 136%
Molecule: Cc1c(C(=O)NCc2ccc(F)cc2)c(=O)n(C)c2cc(C#N)ccc12 [Example 21, 7-cyano-N-[(4-fluorophenyl)-methyl]-1,4-dimethyl-2-oxo-1H-quinoline-3-carboxylic acid amide]

- Emax [2]: 22%
Molecule: COCCn1c(=O)c(C(=O)NCc2cccc(F)c2)c(C)c2ccccc21 [Example 10, N-[(3-fluorophenyl)-methyl]-1-(2-methoxy-ethyl)-4-methyl-2-oxo-1H-quinoline-3-carboxylic acid amide]

- EC50 [1]: 215 nM
- Emax [2]: 190%
Molecule: COc1c(C(=O)NCc2cccc(F)c2)c(=O)n(C)c2cc(C(F)(F)F)ccc12 [Example 45, N-[(3-fluorophenyl)-methyl]-4-methoxy-1-methyl-2-oxo-7-(trifluoromethyl)-1H-quinoline-3-carboxylic acid amide]

- EC50 [1]: 406 nM
- Emax [2]: 167%
Molecule: CCCn1c(=O)c(C(=O)NCc2cccc(F)c2)c(C)c2ccc(C(F)(F)F)cc21 [Example 11, N-[(3-fluorophenyl)-methyl]-4-methyl-2-oxo-1-propyl-7-(trifluoromethyl)-1H-quinoline-3-carboxylic acid amide]

- EC50 [1]: 1270 nM
- Emax [2]: 143%
Molecule: Cc1c(C(=O)NCc2cccc(F)c2)c(=O)n(C)c2cc(C#N)ccc12 [Example 20, 7-cyano-N-[(3-fluorophenyl)-methyl]-1,4-dimethyl-2-oxo-1H-quinoline-3-carboxylic acid amide]

- EC50 [1]: 75 nM
- Emax [2]: 145%
Molecule: Cc1c(C(=O)NCc2cccc(F)c2)c(=O)n(C(C)C)c2cc(C(F)(F)F)ccc12 [Example 40, N-[(3-fluorophenyl)-methyl]-1-isopropyl-4-methyl-2-oxo-7-(trifluoromethyl)-1H-quinoline-3-carboxylic acid amide]

- EC50 [1]: 4990 nM
- Emax [2]: 103%
Molecule: Cn1c(=O)c(C(=O)NCc2cccc(F)c2)c(C(F)(F)F)c2ccccc21 [Example 42, N-[(3-fluorophenyl)-methyl]-1-methyl-2-oxo-4-(trifluoromethyl)-1H-quinoline-3-carboxylic acid amide]

- EC50 [1]: 1680 nM
- Emax [2]: 100%
Molecule: COC(C)Cn1c(=O)c(C(=O)NCc2cccc(F)c2)c(C)c2ccc(C(F)(F)F)cc21 (stereo not shown) [Example 43, N-[(3-fluorophenyl)-methyl]-1-(2-methoxy-propyl)-4-methyl-2-oxo-7-(trifluoromethyl)-1H-quinoline-3-carboxylic acid amide]

More lines, now with the values behind:

Molecule: COCC(COC)n1c(=O)c(C(=O)NCc2cccc(F)c2)c(C)c2ccc(C(F)(F)F)cc21 [Example 31, N-[(3-Fluorophenyl)-methyl]-1-[2-methoxy-1-(methoxymethyl)-ethyl]-4-methyl-2-oxo-7-(trifluoromethyl)-1H-quinoline-3-carboxylic acid amide]
- Emax (CHO-K1, read-out: Fluorimetry % efficacy (RTG = 100%)): 46%
- EC50 [1]: 80 nM

Molecule: Cc1c(C(=O)NCc2cccc(F)c2)c(=O)n(CCCC(C)C)c2cc(C(F)(F)F)ccc12 [Example 13, N-[(3-fluorophenyl)-methyl]-4-methyl-1-(4-methyl-pentyl)-2-oxo-7-(trifluoromethyl)-1H-quinoline-3-carboxylic acid amide]
- Emax [2]: 3%

Molecule: Cc1c(C(=O)N(C)c2cccc(F)c2)c(=O)n(CC(=O)O)c2cc(C(F)(F)F)ccc12 [Example 28, 2-[3-[(3-fluorophenyl)-methyl-carbamoyl]-4-methyl-2-oxo-7-(trifluoromethyl)-1H-quinolin-1-yl]-acetic acid]
- Emax [2]: 16%

Molecule: COCCOCCn1c(=O)c(C(=O)NCc2cccc(F)c2)c(C)c2ccc(C(F)(F)F)cc21 [Example 15, N-[(3-fluorophenyl)-methyl]-1-[2-(2-methoxy-ethoxy)-ethyl]-4-methyl-2-oxo-7-(trifluoromethyl)-1H-quinoline-3-carboxylic acid amide]
- EC50 [1]: 2020 nM
- Emax [2]: 78%

Molecule: CCn1c(=O)c(C(=O)NCc2ccc(F)cc2)c(C)c2ccc(C(F)(F)F)cc21 [Example 8, 1-ethyl-N-[(4-fluorophenyl)-methyl]-4-methyl-2-oxo-7-(trifluoromethyl)-1H-quinoline-3-carboxylic acid amide]
- EC50 [1]: 401 nM
- Emax [2]: 175%

Molecule: COCCn1c(=O)c(C(=O)NCCCC(C)(C)C)c(C)c2ccc(C(F)(F)F)cc21 [Example 24, N-(4,4-dimethyl-pentyl)-1-(2-methoxy-ethyl)-4-methyl-2-oxo-7-(trifluoromethyl)-1H-quinoline-3-carboxylic acid amide]
- EC50 [1]: 167 nM
- Emax [2]: 231%

Molecule: 2-[3-[(3-fluorophenyl)-methyl-carbamoyl]-4-methyl-2-oxo-7-(trifluoromethyl)-1H-quinolin-1-yl]-acetic acid methyl ester [Example 26]
- EC50 [1]: 1010 nM
- Fluorimetry % efficacy (RTG = 100%) (CHO-K1 cells expressing KCNQ2/3 channels, relative to retigabine (RTG) = 100%): 108%

Molecule: Cc1c(C(=O)NCc2cccc(F)c2)c(=O)n(CCC(C)C)c2cc(C(F)(F)F)ccc12 [Example 12, N-[(3-fluorophenyl)-methyl]-4-methyl-1-(3-methyl-butyl)-2-oxo-7-(trifluoromethyl)-1H-quinoline-3-carboxylic acid amide]
- Emax [2]: 33%

Molecule: Cc1c(C(=O)N(C)c2cccc(F)c2)c(=O)n(CCC(=O)O)c2cc(C(F)(F)F)ccc12 [Example 29, 3-[3-[(3-fluorophenyl)-methyl-carbamoyl]-4-methyl-2-oxo-7-(trifluoromethyl)-1H-quinolin-1-yl]-propionic acid]
- Emax [2]: 6%

Molecule: COCCn1c(=O)c(C(=O)NCc2ccc(F)cc2)c(C)c2ccc(C#N)cc21 [Example 23, 7-cyano-N-[(4-fluorophenyl)-methyl]-1-(2-methoxy-ethyl)-4-methyl-2-oxo-1H-quinoline-3-carboxylic acid amide]
- EC50 [1]: 3890 nM
- Emax [2]: 105%

Molecule: Cc1c(C(=O)NCc2ccc(F)cc2)c(=S)n(C)c2cc(C(F)(F)F)ccc12 [Example 36, N-[(4-fluorophenyl)-methyl]-1,4-dimethyl-2-thioxo-7-(trifluoromethyl)-1H-quinoline-3-carboxylic acid amide]
- EC50 [1]: 126 nM
- Emax [2]: 99%

Molecule: COC(=O)CCn1c(=O)c(C(=O)N(C)c2cccc(F)c2)c(C)c2ccc(C(F)(F)F)cc21 [Example 27, 3-[3-[(3-fluorophenyl)-methyl-carbamoyl]-4-methyl-2-oxo-7-(trifluoromethyl)-1H-quinolin-1-yl]-propionic acid methyl ester]
- Emax [2]: 22%

Molecule: CCCCn1c(=O)c(C(=O)NCc2cccc(F)c2)c(C)c2ccc(C(F)(F)F)cc21 [Example 2, 1-butyl-N-[(3-fluorophenyl)-methyl]-4-methyl-2-oxo-7-(trifluoromethyl)-1H-quinoline-3-carboxylic acid amide]
- EC50 [1]: 235 nM
- Emax [2]: 90%
